Data: paper PMC9693223 (Molecules, 2022)

Tests used:
[1] = system: Leishmania major; set-up: method as in PMID 28453984; details: ref [36]; read-out: EC50 against Leishmania major; cited from earlier work
[2] = target: TcrNT2 (Trypanosoma cruzi, UniProt Q4DHG0); assay: Transport of [^3H]-thymidine by TcrNT2 expressed in L. mexicana Cas9^ΔNT1 (Km, inhibition); format: cell-based
Experimental: These values can be used to calculate the Gibbs free energy of interaction ΔG°, but these experiments cannot distinguish between the test compound being transported or merely binding to the transporter and inhibiting the transit of the [^3H]-thymidine.
Transport assays were conducted with radiolabeled nucleosides [methyl-^3H]-thymidine (20 Ci/mmol; PerkinElmer (Waltham, MA, USA)) and [2,8-^3H]-adenosine (40 Ci/mmol; American Radiolabeled Chemicals (ARC, St-Louis, MO, USA)). Cells were harvested from mid-log phase cultures by centrifugation and washed into an assay buffer (AB) as described, at a density of 1 × 10^8 cells mL^−1. Transport assays were then performed exactly as described previously, using an oil-stop protocol. Briefly, 100 µL of cell suspension (10^7 cells) was mixed with 100 µL of [^3H]-substrate at 2 × final concentration and incubated for a pre-set time prior to the addition of 800 µL of ice-cold AB containing a saturating concentration of unlabeled permeant (usually 1 or 2.5 mM) and immediate centrifugation through an oil layer to separate cells from extracellular radiolabel. The 100 µL of [^3H]-substrate could also contain unlabeled substrate or an inhibitor at 2 × concentration, as appropriate. Next, the microfuge tubes were flash frozen in liquid nitrogen; the tips with the cell pellets cut off and collected in scintillation tubes. Cells were solubilized by incubation in 2% SDS under gentle shaking on a rocking platform prior to the addition of scintillation fluid (Scintilogic U, Lablogic, Sheffield, UK). The tubes stored in the dark overnight before counting in a 300SL Hidex Scintillation Counter (Lablogic).
Michaelis-Menten constants (Km) were calculated by plotting transport rates of [^3H]-substrate against the concentration, using the Michaelis-Menten equation V0 = Vmax([substrate]/([substrate] + Km)) and non-linear regression in GraphPad Prism 8. Inhibition constants (Ki) were calculated using the Cheng-Prusoff equation: Ki = IC50/(1 + (L/Km)), where L represents the radiolabel concentration. The IC50 was obtained by a non-linear regression of the inhibition curve of transport rate versus inhibitor concentration, using an equation for a sigmoid curve with variable slope (GraphPad Prism 8). The Gibbs free energy ΔG° was obtained using the equation ΔG° = −RTln(Ki), in which R is the gas constant and T is the absolute temperature. As discussed previously, these equations apply to competitive rather than non-competitive inhibition. Given that only close analogues of the substrate were used as potential inhibitors and that Hill slopes were consistently close to −1, it is very likely that inhibition was indeed competitive.

TcrNT2, sequence (Q4DHG0 entry or part of it): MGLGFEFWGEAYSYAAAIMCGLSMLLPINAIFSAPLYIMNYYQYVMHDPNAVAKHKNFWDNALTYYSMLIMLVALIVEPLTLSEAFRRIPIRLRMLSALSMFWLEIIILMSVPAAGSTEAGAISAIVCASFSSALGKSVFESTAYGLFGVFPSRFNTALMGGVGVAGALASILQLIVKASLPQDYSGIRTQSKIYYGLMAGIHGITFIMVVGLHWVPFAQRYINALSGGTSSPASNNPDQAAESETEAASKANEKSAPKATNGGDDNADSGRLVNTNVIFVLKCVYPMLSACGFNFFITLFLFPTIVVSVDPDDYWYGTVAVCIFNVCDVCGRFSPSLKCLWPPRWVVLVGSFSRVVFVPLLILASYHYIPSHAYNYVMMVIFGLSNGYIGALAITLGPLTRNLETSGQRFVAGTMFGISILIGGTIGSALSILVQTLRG

## O=c1[nH]c(=O)n([C@H]2C[C@H](O)[C@@H](CO)O2)cc1F [5-F-2′-dUrd, 5-F-2′-deoxyuridine]
[1]
  EC50: 1400 nM
[2]; calculated from Km or Ki at 25 °C
  ΔG° (Gibbs free energy of interaction): -7.93 kcal/mol
[2]; change in ΔG° relative to thymidine
  δ(ΔG°) with respect to ΔG° of thymidine: -1.03 kcal/mol
[2]; read-out: Ki on the transport of [^3H]-thymidine by TcrNT2
  Ki: 1500 ± 120 nM
